Values quoted from earlier work in patent publication US8980874B2, “Method and composition for treating diabetic ketoacidosis” (Midwestern University, priority 2009, dated 2015).

What was measured:
[1] = test system: rat model of embolic stroke; details: rat model of embolic stroke where rtPA was used; cited from earlier work
BBB permeability = details: repeated intracisternal administration of ET-1 in dogs and rats; cited from earlier work

SMILES: CC1(C)CC[C@]2(C(=O)[O-])CC[C@]3(COC(=O)/C=C/c4cc([O-])ccc4NC(=O)/C=C/C(=O)O)C(=CC[C@@H]4[C@@]5(C)CCC(=O)C(C)(C)[C@@H]5CC[C@]43C)[C@@H]2C1.[Na+].[Na+] [S-0139]
- neuroprotection / rtPA evoked disruption of BBB [1]: provided neuroprotection by suppressing rtPA evoked disruption of BBB
- effect on ET-1 induced increase in BBB permeability (BBB permeability): blocked
